According to patent US20220347266A1, “METHOD AND MEDICINE FOR TREATING DEPRESSIVE DISORDERS” (QINGDAO PRIMEDICINE PHARMACEUTICAL CO., LTD., priority 2018, published 2022):
Where no end group is shown, it is not given here.

What was measured:
AMPAR = conditions: from EP1,687,427B1; cited from earlier work
C57 mice = experiment: Forced swim test (FST) of mice, behavioral despair model of depressive disorder; type: in vivo, mouse; conditions: for immobility time of forced swimming mice: vs vehicle, FIG. 1
Text: Among the behavioral despair models, forced swim test of mice/rats is the most common animal model of depressive disorder to evaluate the effect of antidepressants. In this model, animals are forced to swim in water in a limited space. After struggling for many times but failing to escape, the animals may stop swimming and begin floating without struggling to escape anymore. This immobility is considered as the manifestation of behavioral despair and depression. This model has good predictive validity for antidepressants.
By using ketamine metabolite HNK as a positive control medication, the effect of compound PMS-001 on depression-like behavior of C57 mice was investigated through forced swim test 1 hour and 24 hours after single medicinal intervention. […]; (SEQ ID NO: 3). Wherein the amino acid sequence YGRKKRRQRRR (SEQ ID NO: 2), also known as Tat peptide, is a carrier peptide, and can assist the polypeptide in penetration of the blood-brain barrier. […] However, it is unknown in the art whether a C-terminal polypeptide of GluR2 such as YKEGYNVYG (SEQ ID NO: 1) can be used in the treatment of depressive disorder, specifically major depressive disorder.
The experimental animals were 6-week-old male C57 mice obtained from Shanghai SLAC Laboratory Animal Co., Ltd, with body weight of […]. They were transported to the Animal Breeding Center of Shanghai Institute of Materia Medica, Chinese Academy of Sciences (Animal production license: SCXK9 [Shanghai] 2004-0002, use license: SYXK [Shanghai] 2003-0029), and allowed to acclimatize in animal facilities for more than 3 days, with 6 individuals per cage. Mice were housed at room temperature (23±0.2° C.), with a 12 h/12 h light/dark cycle. Before the behavioral test, animals were moved to the behavior testing room 2 hours in advance for acclimation to relieve tension. […]
24 hours before administration, each mouse was placed into a cylinder tank for acclimation in the water environment for 10 min. […] Mice were videotaped for 6 minutes since being placed into water, and the immobility time for the last 4 minutes was calculated due to the fact that most animals were very active in the first two minutes (the criteria for immobility: mice stop struggling, keep immobility and make small movements to balance their bodies or float in water). […]
All data analyses were performed with spss 22 data processing software. […] Data were expressed as Mean±SEM. *: p<0.05; **: p<0.01; ***: p<0.001.

Row | Sequence | inhibition of NMDA-mediated excessive endocytosis of AMPAR (AMPAR) | immobility time of forced swimming mice (C57 mice; 1 hour after administration, single 10 mg/kg intraperitoneal injection) | immobility time of forced swimming mice (C57 mice; 24 hours after administration, single 10 mg/kg intraperitoneal injection) | antidepressant effect compared to positive control HNK (C57 mice; same dose (10 mg/kg i.p.)) | onset of antidepressant effect after administration (C57 mice; single 10 mg/kg intraperitoneal injection) [h]
1 | YKEGYNVYG (Artificially synthesized GluR2-3Y peptide) | proved to inhibit |  |  |  | 
2 | YGRKKRRQRRRYKEGYNVYG [PMS-001] |  | very significantly decrease | very significantly decrease | better rapid and lasting antidepressant effect | 1
